# Data from patent US11684607B2, “Secnidazole for use in the treatment of bacterial vaginosis” (priority 2014, dated 2023).
# Columns and labels:
# [1] = Safety evaluation (adverse events, vital signs, ECGs, laboratory tests) after single 1 g or 2 g dose of SYM-1219; assay type: in vivo, human; conditions: single 1 g or 2 g oral dose; healthy female subjects
# Method: Methods: 28 healthy female subjects (14/group) ages 18-65 years were randomized to receive a single oral dose of either 1 or 2 grams of SYM-1219, mixed into 4 oz. of applesauce. […] Safety was evaluated by recording adverse events, vital signs, ECGs and laboratory tests.
# [2] = Single oral dose pharmacokinetics (plasma and urine) of SYM-1219 microgranule formulation in fasted healthy female subjects; conditions: for AUC(0-t): AUC0-t; for CL renal: CLr
# Method: A non-compartmental analysis was performed and the PK parameters for each treatment group are reported.
# [3] = female, human, plasma, po, 1 g, Geometric Mean, 1 gram single oral dose, fasted, N = 14
# [4] = female, human, plasma, po, 1 g, Mean, 1 gram single oral dose, fasted, N = 14
# [5] = female, human, plasma, po, 1 g, Median, 1 gram single oral dose, fasted, N = 14
# [6] = plasma, 1 gram single oral dose, fasted, N = 14
# [7] = plasma, 2 grams single oral dose, fasted, N = 14
# [8] = urine, 1 gram single oral dose, fasted, N = 14
# [9] = urine, 2 grams single oral dose, fasted, N = 14
smiles,measurement,setting,value
"Cc1ncc([N+](=O)[O-])n1CC(C)O (centres unmarked) [SYM-1219, 1-(2-hydroxypropyl)-2-methyl-5-nitromidazole]","changes in vital signs, electrocardiogram (ECG) or laboratory parameters",[1],no significant changes
same,safety and tolerability,[1],safe and well-tolerated
same,severity and outcome of all adverse events,[1],mild and resolved without sequelae
same,intersubject variability for Cmax and AUC,[2]; 1 g and 2 g doses,< 20 % CV
same,renal clearance as percentage of the glomerular filtration rate typically found in healthy subjects,[2]; 1 g and 2 g doses,< 5%
same,"Urinary excretion of unchanged SYM-1219, share of the administered dose",[2]; 1 g dose,13.6%
same,"Urinary excretion of unchanged SYM-1219, share of the administered dose",[2]; 2 g dose,15.3%
same,time by which maximum concentrations were achieved,[2]; both dose groups (1 g and 2 g),approximately 4 hrs.
same,dose proportionality of pharmacokinetics,[2]; comparing the 1 and 2 g doses,dose proportional
same,AUC(0-inf),"[2]; female, human, plasma, oral, 1 g, Exposure estimate (AUCinf)",619 µg·h/mL
same,AUC(0-inf),"[2]; female, human, plasma, oral, 2 g, Exposure estimate (AUCinf)",1330 µg·h/mL
same,Tmax,"[2]; female, human, plasma, po, 1 g",3.06 h
same,AUC(0-t),[2]; [3],603 µg·h/mL
same,AUC(0-t),[2]; [4],610 µg·h/mL
same,AUC(0-t),[2]; [5],587 µg·h/mL
same,Cmax,[2]; [3],22400 ng/mL
same,Cmax,[2]; [4],22600 ng/mL
same,Cmax,[2]; [5],22800 ng/mL
same,AUC(0-inf),"[2]; female, human, plasma, po, 1 gram, AUC0-∞, Geometric Mean, 1 gram single oral dose, fasted, N = 14",612 µg·h/mL
same,AUC(0-inf),"[2]; female, human, plasma, po, 1 gram, AUC0-∞, Mean, 1 gram single oral dose, fasted, N = 14",619 µg·h/mL
same,AUC(0-inf),"[2]; female, human, plasma, po, 1 gram, AUC0-∞, Median, 1 gram single oral dose, fasted, N = 14",595 µg·h/mL
same,CL renal,"[2]; female, human, urine, po, 1 gram, Geometric Mean, 1 gram single oral dose, fasted, N = 14",3.65 mL/min
same,CL renal,"[2]; female, human, urine, po, 1 gram, Mean, 1 gram single oral dose, fasted, N = 14",3.74 mL/min
same,Mean maximum concentration,"[2]; plasma, 1 g dose",22.6 µg/mL
same,"t1/2, Mean",[2]; [6],17.05 h
same,"t1/2, Median",[2]; [6],16.79 h
same,"λz, Mean",[2]; [6],0.04099 h⁻¹
same,"λz, Median",[2]; [6],0.04129 h⁻¹
same,Mean maximum concentration,"[2]; plasma, 2 g dose",45.4 µg/mL
same,"AUC0-t, Geometric Mean",[2]; [7],1305.35 µg·h/mL
same,"AUC0-t, Mean",[2]; [7],1322.40 µg·h/mL
same,"AUC0-t, Median",[2]; [7],1290.41 µg·h/mL
same,"AUC0-∞, Geometric Mean",[2]; [7],1314.74 µg·h/mL
same,"AUC0-∞, Mean",[2]; [7],1331.63 µg·h/mL
same,"AUC0-∞, Median",[2]; [7],1299.10 µg·h/mL
same,"Cmax, Geometric Mean",[2]; [7],44840 ng/mL
same,"Cmax, Mean",[2]; [7],45430 ng/mL
same,"Cmax, Median",[2]; [7],45050 ng/mL
same,"Tmax, Median",[2]; [7],4.000 h
same,"t1/2, Mean",[2]; [7],16.86 h
same,"t1/2, Median",[2]; [7],17.13 h
same,"λz, Mean",[2]; [7],0.0422 h⁻¹
same,"λz, Median",[2]; [7],0.04047 h⁻¹
same,"% FE, Geometric Mean",[2]; [8],13.403%
same,"% FE, Mean",[2]; [8],13.602%
same,"% FE, Median",[2]; [8],13.981%
same,"Ae0-168, Geometric Mean",[2]; [8],0.134 g
same,"Ae0-168, Mean",[2]; [8],0.136 g
same,"Ae0-168, Median",[2]; [8],0.140 g
same,"CLr, Median",[2]; [8],3.965 mL/min
same,"% FE, Geometric Mean",[2]; [9],14.991%
same,"% FE, Mean",[2]; [9],15.300%
same,"% FE, Median",[2]; [9],14.943%
same,"Ae0-168, Geometric Mean",[2]; [9],0.300 g
same,"Ae0-168, Mean",[2]; [9],0.306 g
same,"Ae0-168, Median",[2]; [9],0.299 g
same,"CLr, Geometric Mean",[2]; [9],3.801 mL/min
same,"CLr, Mean",[2]; [9],3.935 mL/min
same,"CLr, Median",[2]; [9],3.962 mL/min
